This is an account of results in paper PMC3013143 (PLoS ONE, 2010).

No end group written: not given here.

One data set in a line: human serum. Particulars: 37°C, up to 2 h.
Data set [1] concerns the target T1, recombinant extracellular domain of human CAIX (Homo sapiens, UniProt Q16790).
T1 construct: Fc (Fc gamma, from pSEC-EGP-2-Fcγ vector) (C); made in house; host or cells: Flp-In-293 human embryonic kidney cells (secreted into medium)
The data set is described as follows: Binding of 125I-labeled CaIX-P1 on immobilized recombinant extracellular domain of CAIX. The note with it: co-incubation of ^125I-CaIX-P1 with unlabeled CaIX-P1 at 10^−4 M, p<0.05, n = 3; read-out: Binding inhibition of the radioligand. The method, then: Binding of ^125I-labeled CaIX-P1 was performed on immobilized recombinant extracellular domain of human CAIX and of EGFR. For immobilization the target proteins CAIX and EGFR were incubated at a concentration of 50 nM in 24-well plates for 24 h. Thereafter, the plates were washed three times with 500 µl PBS pH 7.4. Incubation with ^125I-CaIX-P1 was performed in 500 µl PBS pH 7.4 for 30 min. After incubation the plates were washed three times with 500 µl ice cold PBS pH 7.4. The target proteins were degraded with 500 µl NaOH 0.3 mol/L and the radioactivity was counted with a γ-counter. Bound radioactivity was calculated as percentage applied dose. In order to evaluate the specificity of the radioligand binding, competition experiments with the unlabeled CaIX-P1 peptide at a concentration of 10^−4 M were carried out.

In data set [2] the test system is CAIX positive SKRC 52 cells. The format is cell-based, human. Particulars: 24 h. The method, then: For binding experiments 3×10^5 CAIX positive SKRC 52 cells were seeded into 6-well plates and cultivated in 3 mL of incubation medium at 37°C for 24 h. After cell blocking with RPMI 1640 (without FCS) containing 1% BSA, the medium was replaced with 1 mL of fresh medium (without FCS) containing 0.5–1.5×10^6 cpm of ^125I-labeled peptide and incubation was performed for time periods varying from 10 min to 6 h at 37°C. To determine specific versus nonspecific binding, the cells were incubated with the unlabeled CaIX-P1 peptide at concentrations varying from 10^−4 to 10^−10 mol/L. Octreotide was used as negative control competitor. After incubation the medium was removed and the cells were washed three times with 1 mL ice cold PBS in order to remove the unbound radiolabeled peptide. Subsequently, the cells were lysed with 0.5 mL NaOH 0.3 mol/L and the radioactivity was measured with a γ-counter. Bound radioactivity was calculated as percentage applied dose per 10^6 cells. Binding experiments were also performed on HCT 116 cells and on human umbilical vein endothelial cells (HUVEC) at various cell densities. CAIX negative CaKi-2 cells were used as negative control.

A short description of another data set: Stability in human serum. The format is in vitro ADME. Particulars: 37°C. The method, then:
The stability of CaIX-P1 was investigated in human serum. The peptide was incubated at 37°C in human serum at a concentration of 10^−4 mol/L. At time points varying from 5 min to 2 h aliquots were taken, mixed with equal volume acetonitrile to precipitate serum proteins and centrifuged for 5 min at 13,000 rpm. The supernatant was analyzed with HPLC on a Chromolith Performance RP-18e 100×4.6 mm column (Merck) using a linear gradient of water and acetonitrile containing 0.1% trifluoroacetic acid. Samples of CaIX-P1 and its fragments in human serum were isolated and analyzed by MALDI-TOF mass spectrometry.

Take YNTNHVPLSPKY: the cleaved bond result in the data set “human serum” was “tyrosine1-N2, major, 10 min”.

A word on the inhibition: it is the percentage by which the read-out fell short of the control. By IC50 is commonly meant the concentration that inhibits the measured activity by half. A high value points to a need for much substance. In general, half-life refers to the time in which the quantity being followed falls by half. For the sequence YNTNHVPLSPKY [CaIX-P1], the inhibition at 100 µM in data set [1] was 93%. For the same sequence, the half-maximal inhibitory concentration (IC50) in data set [2] is 1750 ± 490 nM. Also, in the data set “Stability in human serum” (10^−4 mol/L, appeared after 10 min, HPLC isolation and MALDI-TOF mass spectrometry), the “Main product of serum degradation” value was “lacking the N-terminal tyrosine”. In addition, the half-life in the data set “Stability in human serum” (peptide 10^−4 mol/L, aliquots 5 min to 2 h, acetonitrile precipitation, HPLC) was around 25 min.
